Reference: US10772896B2, “Process for preparing a dry powder formulation comprising an anticholinergic, a corticosteroid and a beta-adrenergic” (CHIESI FARMACEUTICI S.P.A., priority 2015, dated 2020)

Experiments:
[1] = Aerosol performance by Next Generation Impactor (NGI); assay type: physicochemical
Excerpt: After aerosolization of 3 doses from the inhaler device, the NGI apparatus was disassembled and the amounts of drug deposited in the stages were recovered by washing with a solvent mixture and then quantified by High-Performance Liquid Chromatography (HPLC).

[2] = Uniformity of distribution of the active ingredients in the blend (10 samples, HPLC); assay type: physicochemical; conditions: dry powder formulation of Example 2; mean value ± RSD
Procedure: The uniformity of distribution of the active ingredients was evaluated by withdrawing 10 samples from different parts of the blend and evaluated by HPLC

[3] = Batch CY (Cyclomix), reference powder formulation of WO 2015/004243
[4] = Batch MF (mechano-fusion), reference powder formulation of WO 2015/004243
[5] = dry powder formulation of Example 2, DPI of WO 2004/012801
[6] = dry powder formulation of Example 2, DPI of WO 2004/012801, 2.0-5.0 micron
[7] = dry powder formulation of Example 2, DPI of WO 2004/012801, particle size <= 5.0 micron
[8] = dry powder formulation of Example 2, multidose DPI of WO 2004/012801
[9] = pMDI HFA solution formulation of WO 2011/076843 (reference Example 4)

SMILES: C[N+]1(C)CCC(OC(=O)C(O)(c2ccccc2)C2CCCC2)C1 (stereo not drawn) [GB, Glycopyrronium bromide]
- Delivered Dose [1, 3]: 11.6 µg
- Extrafine Particle Fraction < 2 μm [1, 3]: 34.9%
- Extrafine Particle Mass < 2 μm [1, 3]: 4.0 µg
- Fine Particle Fraction [1, 3]: 57.2%
- Fine Particle Mass [1, 3]: 6.6 µg
- MMAD [1, 3]: 1.8 μm
- Mid Fine Particle Fraction [1, 3]: 22.3%
- Mid Fine Particle Mass [1, 3]: 2.6 µg
- Delivered Dose [1, 4]: 11.9 µg
- Extrafine Particle Fraction < 2 μm [1, 4]: 33.2%
- Extrafine Particle Mass < 2 μm [1, 4]: 4.0 µg
- Fine Particle Fraction [1, 4]: 53.8%
- Fine Particle Mass [1, 4]: 6.4 µg
- MMAD [1, 4]: 1.4 μm
- Mid Fine Particle Fraction [1, 4]: 20.6%
- Mid Fine Particle Mass [1, 4]: 2.5 µg
- Extrafine Particle Fraction < 1 μm [1, 5]: 9.8%
- Extrafine Particle Fraction < 2 μm [1, 5]: 26.4%
- Extrafine Particle Mass < 1 μm [1, 5]: 1.1 µg
- Extrafine Particle Mass < 2 μm [1, 5]: 2.9 µg
- Fine Particle Fraction [1, 5]: 48.1%
- MMAD [1, 5]: 1.9 μm
- Mid Fine Particle Fraction [1, 6]: 21.6%
- Mid Fine Particle Mass [1, 6]: 2.4 µg
- Fine Particle Mass [1, 7]: 5.4 µg
- Delivered Dose [1, 8]: 11.1 µg
- Delivered Dose [1, 9]: 10.6 µg
- Extrafine Particle Fraction < 2 μm [1, 9]: 40.2%
- Extrafine Particle Mass < 2 μm [1, 9]: 4.2 µg
- Fine Particle Fraction [1, 9]: 45.1%
- Fine Particle Mass [1, 9]: 4.8 µg
- MMAD [1, 9]: 1.0 μm
- Mid Fine Particle Fraction [1, 9]: 5.0%
- Mid Fine Particle Mass [1, 9]: 0.5 µg

SMILES: CCC(=O)OCC(=O)[C@@]1(OC(=O)CC)[C@@H](C)C[C@H]2[C@@H]3CCC4=CC(=O)C=C[C@]4(C)[C@@]3(Cl)[C@@H](O)C[C@@]21C [BDP, Beclometasone dipropionate]
- Uniformity of distribution [2]: 100.5 (±1.8)
- Delivered Dose [1, 3]: 90.6 µg
- Extrafine Particle Fraction < 2 μm [1, 3]: 53.9%
- Extrafine Particle Mass < 2 μm [1, 3]: 48.8 µg
- Fine Particle Fraction [1, 3]: 71.2%
- Fine Particle Mass [1, 3]: 64.5 µg
- MMAD [1, 3]: 1.1 μm
- Mid Fine Particle Fraction [1, 3]: 17.3%
- Mid Fine Particle Mass [1, 3]: 15.7 µg
- Delivered Dose [1, 4]: 95.7 µg
- Extrafine Particle Fraction < 2 μm [1, 4]: 52.3%
- Extrafine Particle Mass < 2 μm [1, 4]: 50.0 µg
- Fine Particle Fraction [1, 4]: 69.9%
- Fine Particle Mass [1, 4]: 66.9 µg
- MMAD [1, 4]: 1.1 μm
- Mid Fine Particle Fraction [1, 4]: 17.6%
- Mid Fine Particle Mass [1, 4]: 16.9 µg
- Extrafine Particle Fraction < 1 μm [1, 5]: 13.9%
- Extrafine Particle Fraction < 2 μm [1, 5]: 32.1%
- Extrafine Particle Mass < 1 μm [1, 5]: 12.4 µg
- Extrafine Particle Mass < 2 μm [1, 5]: 28.5 µg
- Fine Particle Fraction [1, 5]: 49.3%
- MMAD [1, 5]: 1.6 μm
- Mid Fine Particle Fraction [1, 6]: 17.1%
- Mid Fine Particle Mass [1, 6]: 15.2 µg
- Fine Particle Mass [1, 7]: 43.6 µg
- Delivered Dose [1, 8]: 88.5 µg
- Delivered Dose [1, 9]: 87.8 µg
- Extrafine Particle Fraction < 2 μm [1, 9]: 40.9%
- Extrafine Particle Mass < 2 μm [1, 9]: 35.9 µg
- Fine Particle Fraction [1, 9]: 46.0%
- Fine Particle Mass [1, 9]: 40.4 µg
- MMAD [1, 9]: 1.0 μm
- Mid Fine Particle Fraction [1, 9]: 5.2%
- Mid Fine Particle Mass [1, 9]: 4.5 µg
